Source: patent US20040044281A1, “Systems and methods for assessing blood flow in a target tissue” (priority 2002, published 2004)
Several values for one entry are separate records, joined by “and”; a condition that tells them apart may be missing. Equal values may be shown once.

System: tumor blood flow
Test: DCE-MRI tumor blood flow estimation pre- and post-treatment in patients of a phase I trial
Type: in vivo, human
Design: Change tgp / Change Gpeak / Change tgp10 / Change E: unit not given here
Conditions: individual patients; for Post-treatment E (enhancement) / Post-treatment Gpeak (gradient peak) / Post-treatment tgp10 (time till gradient drops to 10% of Gpeak) / Post-treatment tgp (time to gradient peak): DCE-MRI 4-6 hrs after infusion, tumor ROI; for Change E / Change Gpeak / Change tgp / Change tgp10: post minus pre-treatment
Method: The above equation (4) for Srel can be solved for the concentration variable C if the baseline set of MR image data set is set equal to Sbaseline, and the post MR sets of image data is set equal to the variable Spostcontrast. Concentration C can be calculated on a pixel by pixel or voxel by voxel basis and then averaged resulting in a data set of Concentration C as a function of time. A shown in Block 50 of FIG. 1, the mathematical derivative of Concentration C is determined, preferably by fitting a curve through the concentration data set and then taking the derivative of the curve equation to acquire a gradient curve. The gradient curve represents the rate of change of the tissue concentration of the contrast agent in the ROI. As shown in block 60 of FIG. 1, the maximum value of the rate of change of concentration per time (dC/dt) or Gpeak, is then determined. Thus, Gpeak, which is the magnitude of the first derivative of the concentration curve, can be employed as a flow analog that maintains a high correlation with flow with minimal sensitivity to variations in volume Ve. MRI acquisition techniques, coupled with image analysis techniques (e.g., intensity, rate of change of intensity), facilitate determining the efficacy of a treatment.
With A=40 mMol·sec (the area under curve without recirculation), B=0.5 mMol (the equilibrium concentration), and tp was the time to peak. […] In each case flow F was varied from 0.001 to 0.03 ml/sec/g. Five parameters were calculated from each curve as shown for example purposes in FIG. 5. Magnitude of the first derivative peak (Gpeak), time from bolus arrival to first derivative peak (tgp,) time for gradient to drop to 10% of peak value (tgp10,), the concentration at tgp10 (denoted CE), and initial area under the CT curve from bolus arrival to 60 sec afterwards (IAUC) (Evelhoch, 1999.
DCE-MRI. Six patients were studied using a 1.5T scanner (Siemens Magnetom Vision). Perfusion studies were obtained with a single-slice Fast Low Angle Shot (FLASH) sequence (TR=10, TE=4, FA=30°, slice thickness=10 mm, matrix=128×256, FOV=16×25 cm-35×35 cm) repeated 128 times, once every 2.6 seconds. The first 10 images were obtained without contrast enhancement, after which an approximately 10 second bolus of Gadolinium-DTPA contrast agent (Magnevist, Berlex Laboratories) was administered intravenously. […] DCE-MRI was performed twice on each patient; once to obtain a pre-treatment baseline, and once 4-6 hrs after infusion of combretestatin. The slice position and orientation between days within each patient was carefully matched to obtain data from the same region of interest (ROI) in the tumor. Image processing was performed off-line using a custom software package that permitted a trained rater to view all 128 images in a study and to interactively identify the tumor ROI.

COc1ccc(/C=C\c2cc(OC)c(OC)c(OC)c2)cc1OP(=O)(O)O [CA4P, disodium combretastatin-A-4-3-O-phosphate]
Post-treatment E (enhancement) (60 mg/m^2 (10 min)): 2.01 and 1.87 | Post-treatment Gpeak (gradient peak) (60 mg/m^2 (10 min)): 6.18 and 5.71 | Post-treatment tgp10 (time till gradient drops to 10% of Gpeak) (60 mg/m^2 (10 min)): 25.30 and 34.50 | Post-treatment tgp (time to gradient peak) (60 mg/m^2 (10 min)): 11.50 and 6.90 | Post-treatment E (enhancement) (60 mg/m^2 (1 hr)): 1.72 and 1.76 and 1.80 and 1.28 and 1.30 | Post-treatment Gpeak (gradient peak) (60 mg/m^2 (1 hr)): 4.93 and 3.57 and 3.47 and 2.19 and 1.48 | Post-treatment tgp10 (time till gradient drops to 10% of Gpeak) (60 mg/m^2 (1 hr)): 36.60 and 44.50 (2×) and 20.90 and 52.60 | Post-treatment tgp (time to gradient peak) (60 mg/m^2 (1 hr)): 7.86 (2×) and 15.70 and 13.10 and 11.70 | Change E (60 mg/m^2 (10 min)): −0.41 and 0.05 | Change Gpeak (60 mg/m^2 (10 min)): −1.12 and 0.92 | Change tgp (60 mg/m^2 (10 min)): 0.00 | Change tgp10 (60 mg/m^2 (10 min)): −13.80 and −4.60 | Change E (60 mg/m^2 (1 hr)): −0.27 and −0.06 and −0.13 and −0.22 and −0.20 | Change Gpeak (60 mg/m^2 (1 hr)): −3.76 and −1.05 and −1.53 and −1.44 and −1.75 | Change tgp (60 mg/m^2 (1 hr)): 0.00 and 2.60 and 5.24 and 2.62 and −4.00 | Change tgp10 (60 mg/m^2 (1 hr)): 18.30 and 5.20 and 10.50 and −15.70 and 21.20
